According to patent US10894784B2, “Heteroarylbenzimidazole compounds” (BAYER PHARMA AKTIENGESELLSCHAFT, priority 2015, dated 2021):

Target: TBK1 (Homo sapiens (Human), UniProt Q9UHD2)
Assay: TBK1 low ATP kinase assay (in vitro assay 1)
Assay type: biochemical
Settings: in vitro assay 1, read-out: TBK1 low ATP kinase assay IC50

TBK1, sequence (Q9UHD2 whole entry): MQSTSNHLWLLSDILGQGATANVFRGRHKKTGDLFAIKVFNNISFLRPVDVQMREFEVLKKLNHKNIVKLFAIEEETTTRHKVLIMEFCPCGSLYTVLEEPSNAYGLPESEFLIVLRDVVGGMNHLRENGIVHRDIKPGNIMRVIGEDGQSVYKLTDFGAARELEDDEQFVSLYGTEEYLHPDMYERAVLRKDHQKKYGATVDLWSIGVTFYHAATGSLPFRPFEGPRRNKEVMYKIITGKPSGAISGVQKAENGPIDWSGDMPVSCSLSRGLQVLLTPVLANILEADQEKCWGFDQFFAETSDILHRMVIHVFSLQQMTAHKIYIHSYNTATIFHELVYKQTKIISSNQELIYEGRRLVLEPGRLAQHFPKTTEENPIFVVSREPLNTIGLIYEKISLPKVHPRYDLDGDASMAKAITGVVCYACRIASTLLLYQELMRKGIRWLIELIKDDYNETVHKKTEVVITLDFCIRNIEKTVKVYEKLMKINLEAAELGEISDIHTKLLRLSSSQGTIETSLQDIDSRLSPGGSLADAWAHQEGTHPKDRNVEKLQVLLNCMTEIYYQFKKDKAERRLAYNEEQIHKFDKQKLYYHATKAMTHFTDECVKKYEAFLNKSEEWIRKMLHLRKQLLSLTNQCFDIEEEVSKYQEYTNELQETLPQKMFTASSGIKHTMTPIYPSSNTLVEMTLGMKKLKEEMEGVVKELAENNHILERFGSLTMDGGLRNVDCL

| SMILES | IC50 |
| --- | --- |
| COc1cc(-c2ccc3nc(Nc4cc(C(C)N5CCN(C(=O)CC(F)(F)F)CC5)ccn4)[nH]c3c2)ncn1 (racemic) [Example 34.02.01, (rac)-3,3,3-trifluoro-1-{4-[1-(2-{[6-(6-methoxypyrimidin-4-yl)-1H-benzimidazol-2-yl]amino}pyridin-4-yl)ethyl]piperazin-1-yl}propan-1-one] | 12.4 nM |
| Cc1cc(-c2ccc3nc(Nc4cc(C(C)N5CCN(C(=O)C6CC6)CC5)ccn4)[nH]c3c2)ncn1 (racemic) [Example 30.02.03, (rac)-cyclopropyl{4-[1-(2-{[6-(6-methylpyrimidin-4-yl)-1H-benzimidazol-2-yl]amino}pyridin-4-yl)ethyl]piperazin-1-yl}methanone] | 3.73 nM |
| Cc1noc(-c2ccc3nc(Nc4cc(C(C)N5CCN(C(=O)C6CC6(F)F)CC5)ccn4)[nH]c3c2)n1 (single isomer, unassigned) [Example 16.06.05, ((1RS)-2,2-difluorocyclopropyl){4-[(1R or 1S)-1-(2-{[6-(3-methyl-1,2,4-oxadiazol-5-yl)-1H-benzimidazol-2-yl]amino}pyridin-4-yl)ethyl]piperazin-1-yl}methanone] | 18.1 nM |
| Cc1noc(-c2ccc3nc(Nc4cc(C(C)N5CCN(C(=O)C6CC6)CC5)ccn4)[nH]c3c2)n1 (racemic) [Example 16.05.03, (rac)-cyclopropyl{4-[1-(2-{[6-(3-methyl-1,2,4-oxadiazol-5-yl)-1H-benzimidazol-2-yl]amino}pyridin-4-yl)ethyl]piperazin-1-yl}methanone] | 43.1 nM |
| Cc1noc(-c2ccc3nc(Nc4cc(CN5CCN(C(=O)CC(F)(F)F)CC5(C)C)ccn4)[nH]c3c2)n1 [Example 16.04.02, 1-{3,3-dimethyl-4-[(2-{[6-(3-methyl-1,2,4-oxadiazol-5-yl)-1H-benzimidazol-2-yl]amino}pyridin-4-yl)methyl]piperazin-1-yl}-3,3,3-trifluoropropan-1-one] | 496 nM |
| CC(C)Cc1nc(-c2ccc3nc(Nc4cc(CN5CCN(C(=O)CC(F)(F)F)CC5)ccn4)[nH]c3c2)n(C)n1 [Example 42.02, 3,3,3-trifluoro-1-(4-{[2-({6-[1-methyl-3-(2-methylpropyl)-1H-1,2,4-triazol-5-yl]-1H-benzimidazol-2-yl}amino)pyridin-4-yl]methyl}piperazin-1-yl)propan-1-one] | 397 nM |
| O=C(CC(F)(F)F)N1CCN(Cc2ccnc(Nc3nc4ccc(-c5ccn(CC6CC6)c(=O)c5)cc4[nH]3)c2)CC1 [Example 44.01, 1-(cyclopropylmethyl)-4-{2-[(4-{[4-(3,3,3-trifluoropropanoyl)piperazin-1-yl]methyl}pyridin-2-yl)amino]-1H-benzimidazol-6-yl}pyridin-2(1H)-one] | 94 nM |
| COc1cc(-c2ccc3nc(Nc4cc(CN5CCN(C(=O)OC(C)(C)C)CC5)ccn4)[nH]c3c2)ncn1 [Example 34.01.01, tert-butyl 4-[(2-{[6-(6-methoxypyrimidin-4-yl)-1H-benzimidazol-2-yl]amino}pyridin-4-yl)methyl]piperazine-1-carboxylate] | 50.6 nM |
| Cc1noc(-c2ccc3nc(Nc4cc(C(C)N5CCN(C(=O)C(C)(C)O)CC5)ccn4)[nH]c3c2)n1 (single isomer, unassigned) [Example 16.06.06, 2-hydroxy-2-methyl-1-{4-[(1R or 1S)-1-(2-{[6-(3-methyl-1,2,4-oxadiazol-5-yl)-1H-benzimidazol-2-yl]amino}pyridin-4-yl)ethyl]piperazin-1-yl}propan-1-one] | 73 nM |
| CC(c1ccnc(Nc2nc3ccc(-c4ccncn4)cc3[nH]2)c1)N1CCN(C(=O)C2CC2)CC1 (single isomer, unassigned) [Example 23.05.01.A, cyclopropyl{4-[(1R or 1S)-1-(2-{[6-(pyrimidin-4-yl)-1H-benzimidazol-2-yl]amino}pyridin-4-yl)ethyl]piperazin-1-yl}methanone] | 2.05 nM |
| COc1cncnc1-c1ccc2nc(Nc3cc(C(C)N4CCN(C(=O)C5CCC5)CC4)ccn3)[nH]c2c1 (single isomer, unassigned) [Example 35.03.04.B, cyclobutyl{4-[(1R or 1S)-1-(2-{[6-(5-methoxypyrimidin-4-yl)-1H-benzimidazol-2-yl]amino}pyridin-4-yl)ethyl]piperazin-1-yl}methanone] | 34.5 nM |
| Cc1noc(-c2ccc3nc(Nc4cc(CN5C[C@@H](C)N(C(=O)CC(F)(F)F)C[C@@H]5C)ccn4)[nH]c3c2)n1 [Example 16.02.02, 1-{(2R,5S)-2,5-dimethyl-4-[(2-{[6-(3-methyl-1,2,4-oxadiazol-5-yl)-1H-benzimidazol-2-yl]amino}pyridin-4-yl)methyl]piperazin-1-yl}-3,3,3-trifluoropropan-1-one] | 335 nM |

More lines, now with the values ahead:

| IC50 | SMILES |
| --- | --- |
| 2600 nM | Cc1nc(-c2ccc3nc(Nc4cc(CN5CCN(C(=O)CC(F)(F)F)CC5)ccn4)[nH]c3c2)c2ccsc2n1 [Example 104.01, 3,3,3-trifluoro-1-{4-[(2-{[6-(2-methylthieno[2,3-d]pyrimidin-4-yl)-1H-benzimidazol-2-yl]amino}pyridin-4-yl)methyl]piperazin-1-yl}propan-1-one] |
| 364 nM | O=C(C1CC1)N1CCN(Cc2ccnc(Nc3nc4ccc(-c5ncccn5)cc4[nH]3)c2)CC1 [Example 180.03, cyclopropyl{4-[(2-{[6-(pyrimidin-2-yl)-1H-benzimidazol-2-yl]amino}pyridin-4-yl)methyl]piperazin-1-yl}methanone] |
| 6.7 nM | CCOc1cc(-c2ccc3nc(Nc4cc(CN5CCN(C(=O)C6CC6)CC5)ccn4)[nH]c3c2)ncn1 [Example 161.03, cyclopropyl{4-[(2-{[6-(6-ethoxypyrimidin-4-yl)-1H-benzimidazol-2-yl]amino}pyridin-4-yl)methyl]piperazin-1-yl}methanone] |
| 11 nM | CC(c1ccnc(Nc2nc3ccc(-c4cnn(CC5CC5)c4)c(F)c3[nH]2)c1)N1CCN(C(=O)OC(C)(C)C)CC1 (single isomer, unassigned) [Example 121.01, tert-butyl 4-{(1R or 1S)-1-[2-({6-[1-(cyclopropylmethyl)-1H-pyrazol-4-yl]-7-fluoro-1H-benzimidazol-2-yl}amino)pyridin-4-yl]ethyl}piperazine-1-carboxylate] |
| 4.8 nM | COCc1cc(-c2ccc3nc(Nc4cc(CN5CCN(C(=O)C6CC6)CC5)ccn4)[nH]c3c2)ncn1 [Example 79.02, cyclopropyl(4-{[2-({6-[6-(methoxymethyl)pyrimidin-4-yl]-1H-benzimidazol-2-yl}amino)pyridin-4-yl]methyl}piperazin-1-yl)methanone] |
| 1 nM | CC(c1ccnc(Nc2nc3ccc(-c4cc(N5CC(F)(F)C5)ncn4)cc3[nH]2)c1)N1CCN(C(=O)C2(C(F)(F)F)CC2)CC1 (single isomer, unassigned) [Example 116.04, (4-{(1R or 1S)-1-[2-({6-[6-(3,3-difluoroazetidin-1-yl)pyrimidin-4-yl]-1H-benzimidazol-2-yl}amino)pyridin-4-yl]ethyl}piperazin-1-yl)[1-(trifluoromethyl)cyclopropyl]methanone] |
| 18 nM | CC(O)c1cc(-c2ccc3nc(Nc4cc(CN5CCN(C(=O)CC(F)(F)F)CC5)ccn4)[nH]c3c2)ncn1 (racemic) [Example 97.02, (rac)-3,3,3-trifluoro-1-[4-({2-[(6-{6-[1-hydroxyethyl]pyrimidin-4-yl}-1H-benzimidazol-2-yl)amino]pyridin-4-yl}methyl)piperazin-1-yl]propan-1-one] |
| 110 nM | O=C(CC(F)(F)F)N1CCN(Cc2ccnc(Nc3nc4ccc(-c5ncnc6c5COC6)cc4[nH]3)c2)CC1 [Example 182.02, 1-{4-[(2-{[6-(5,7-dihydrofuro[3,4-d]pyrimidin-4-yl)-1H-benzimidazol-2-yl]amino}pyridin-4-yl)methyl]piperazin-1-yl}-3,3,3-trifluoropropan-1-one] |
| 62 nM | COc1c(-c2ccc3nc(Nc4cc(CN5CCN(C(=O)CC(F)(F)F)CC5)ccn4)[nH]c3c2)ncnc1N(C)CC1CC1 [Example 110.04, 1-[4-({2-[(6-{6-[(cyclopropylmethyl)(methyl)amino]-5-methoxypyrimidin-4-yl}-1H-benzimidazol-2-yl)amino]pyridin-4-yl}methyl)piperazin-1-yl]-3,3,3-trifluoropropan-1-one] |
| 30 nM | COc1c(-c2ccc3nc(Nc4cc(CN5CCN(C(=O)C6CC6)CC5)ccn4)[nH]c3c2)ncnc1N(C)CC1CC1 [Example 110.02, cyclopropyl[4-({2-[(6-{6-[(cyclopropylmethyl)(methyl)amino]-5-methoxypyrimidin-4-yl}-1H-benzimidazol-2-yl)amino]pyridin-4-yl}methyl)piperazin-1-yl]methanone] |
| 34.2 nM | CC(c1ccnc(Nc2nc3ccc(-c4cc(OCC(F)(F)C(F)(F)F)ncn4)cc3[nH]2)c1)N1CCN(C(=O)[C@@H]2CC2(F)F)CC1 (single isomer, unassigned) [Example 166.05, ((1RS)-2,2-difluorocyclopropyl)(4-{(1R or 1S)-1-[2-({6-[6-(2,2,3,3,3-pentafluoropropoxy)pyrimidin-4-yl]-1H-benzimidazol-2-yl}amino)pyridin-4-yl]ethyl}piperazin-1-yl)methanone] |
| 9.3 nM | CN(c1cc(-c2ccc3nc(Nc4cc(CN5CCN(C(=O)CC(F)(F)F)CC5)ccn4)[nH]c3c2)ncn1)C1CCC1 [Example 156.02, 1-[4-({2-[(6-{6-[cyclobutyl(methyl)amino]pyrimidin-4-yl}-1H-benzimidazol-2-yl)amino]pyridin-4-yl}methyl)piperazin-1-yl]-3,3,3-trifluoropropan-1-one] |
| 33 nM | COCc1cc(-c2ccc3nc(Nc4cc(C(C)N5CCN(C(=O)CC(F)(F)F)CC5)ccn4)[nH]c3c2Cl)ncn1 (single isomer, unassigned) [Example 99.01, 1-(4-{(1R or 1S)-1-[2-({7-chloro-6-[6-(methoxymethyl)pyrimidin-4-yl]-1H-benzimidazol-2-yl}amino)pyridin-4-yl]ethyl}piperazin-1-yl)-3,3,3-trifluoropropan-1-one] |
| 2.9 nM | CC(c1ccnc(Nc2nc3ccc(-c4cnn(CC5CC5(C)C)c4)cc3[nH]2)c1)N1CCN(C(=O)CC(F)(F)F)CC1 (single isomer, unassigned) [Example 67.02, 1-{4-[(1R or 1S)-1-(2-{[6-(1-{[(1RS)-2,2-dimethylcyclopropyl]methyl}-1H-pyrazol-4-yl)-1H-benzimidazol-2-yl]amino}pyridin-4-yl)ethyl]piperazin-1-yl}-3,3,3-trifluoropropan-1-one] |
